Test [1] concerns 78 Psy crcB motif RNA (fluoride riboswitch aptamer). It counts as binding, Pseudomonas syringae.
Test [2] concerns the target crcB motif RNA. The following applies: read-out: KD for fluoride binding; in-line probing. Here is the method:
(§1) Briefly, in vitro transcribed RNA were 5′ ^32P-radiolabeled and trace amounts (˜1 nM) were incubated at room temperature for 48 hours (unless otherwise indicated) in the presence of 100 mM KCl, 50 mM Tris-HCl (pH 8.3 at 23° C.), and 20 mM MgCl2. Cleavage products were separated by using denaturing 10% PAGE and imaged with a PhosphorImager (Molecular Dynamics). ImageQuant 5.1 was used to establish band intensities. Exceptions to the typical in-line probing methods are detailed in the following sections.

The target in test [3] is crcB motif RNA. The following applies: read-out: KD for fluoride binding; in-line probing. Here is the method:
as §1
This is another data set of the same source.

Test [4] has as its system crcB KO strain of E. coli. The test is described as follows: microbe, parasite or virus in culture. As to the method: (§2) Cell growth of WT and crcB KO E. coli strains were measured overnight using a Bioscreen C instrument (Oy Growth Curves Ab Ltd, Finland). The amount of fluoride added to the media was varied to measure the effect on growth at several pH values. Reporter constructs with B. cereus or P. syringae riboswitch sequences fused to the lacZ gene were cloned into the vectors pDG1661 or pRS414, respectively. The two vectors were transformed into B. subtilis or E. coli, and gene expression was examined by addition of X-gal into grown cultures or quantified with Miller assays.
(§3) Growth curves to compare pH conditions used 350 μL of LB (neutral pH) or LBK medium (pH 5.5), 3.5 μL of an overnight culture, and 3.5 μL, of a 10× sodium fluoride or sodium chloride solution. Growth curves with empty or eriC^F-containing plasmid included 100 μg mL^−1 carbenicillin added to the growth medium (2XLB), which was subsequently diluted two-fold to a final concentration of 50 μg mL^−1.
(§4) E. coli strains BW25113 and its crcB KO derivative strain harboring the eriC^F riboswitch reporter construct were streaked on modified LB plates with carbenicillin (100 μg mL^−1) and X-gal (800 μg ml^−1). Plates included 0, 0.2 or 50 mM NaF.

The subject of test [5] is fluoride riboswitch from the P. syringae eriC gene fused to lacZ. As to the method: as §2
The 5′ UTR of COG0038 (eriC^F homolog) was amplified from P. syringae DC3000 genomic DNA as an EcoRI-BamHI fragment and cloned into the translational reporter vector pRS414. […] Specifically, the region encompassing nucleotides −248 to +24 with respect to the beginning of the eriC^F ORF was cloned as a translational fusion in pRS414, wherein the 8th codon of the ORF was fused in frame to the 9th codon of lacZ reporter gene. Mutations in the regulatory region were generated by a three-step PCR approach using methods described previously (A. Nahvi, et al., Chem. Biol. 9, 1043 (2002)).
as §4

Test [6] relates to riboswitch associated with B. cereus crcB fused to lacZ. The following applies: increasing amounts of fluoride, X-gal and Miller assays with ONPG. Here is the method:
as §2

The subject of test [7] is eriC^F-rescued E. coli crcB KO cells. Here is the method:
The eriC^F gene from P. syringae DC3000 was amplified from genomic DNA by PCR and cloned into the pCR2.1 TA vector (Invitrogen). The cloned fragment contained the full length eriC^F ORF, the 5′ UTR features described above, and the native promoter to drive expression.
as §3

Test [8] has as its target T1, fluoride transporter protein CrcB (Escherichia coli, UniProt P37002).
T1 construct: this bacterial species does code for a CrcB protein; endogenous in cells; host or cells: E. coli
The test is described as follows: Fluoride riboswitch beta-galactosidase reporter (4-MUG) in E. coli with imipramine. Type of test: cell-based. An excerpt: (§5) A fluoride riboswitch fused to a beta-galactosidase reporter gene is present in E. coli cells and cells are exposed to concentrations of sodium fluoride and imipramine (x-axis) as noted. The structure of imipramine is shown below.

In test [9] the test system is E. coli cells lacking the gene to express the fluoride transporter protein CrcB. The test is described as follows: Fluoride riboswitch beta-galactosidase reporter (4-MUG) in E. coli lacking CrcB with imipramine. It counts as cell-based. The following applies: same construct in cells lacking CrcB, compared with cells having CrcB.
Description: as §5

Where [10] appears, read: ligands at 10 mM or as in footnotes of Tables 1 and 2 (CO ~0.9 mM, NO 1 mM).

SMILES strings stand for the structures. Where “and” joins values, the source holds several entries; their conditions need not be identical. Equal entries are not always repeated. Entries after “also recorded” stand apart in the source; their conditions may differ. Where two headings read alike, the source gives them in different places.

T1 sequence (P37002 whole entry): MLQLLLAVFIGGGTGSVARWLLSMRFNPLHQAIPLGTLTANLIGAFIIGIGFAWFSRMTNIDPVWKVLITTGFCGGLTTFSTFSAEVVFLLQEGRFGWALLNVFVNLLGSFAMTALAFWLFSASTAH
Description for WT E. coli cells: For each bacterial strain, an overnight culture was set up of the desired bacteria the previous day. The majority of the growth curves were conducted in 350 μL LB medium that initially was not supplemented with salt. […] The desired concentration of NaF or NaCl was subsequently added as designated for each culture after a 1:100 dilution of an overnight culture. Wells with NaF concentrations below 1 mM were supplemented with 1 mM NaCl. Each condition was set up in duplicate or triplicate. Every fifteen minutes the 100-well plate was shaken at medium intensity for 10 seconds and the OD600 was automatically measured for a period of 16 hours. The data was analyzed using Microsoft Excel.

In the case of `[Ca+2].[Cl-].[Cl-]` [Ca^2+, calcium chloride], in [1], the “effect on fluoride-dependent RNA structural modulation” value was “diminishes RNA structural modulation; also recorded: complete loss of modulation”.
For the compound `[F-].[Na+]` [NaF, sodium fluoride], the “conformational changes of 78 Psy crcB motif RNA” value in [1] was “trigger identical conformational changes”. In the test with WT E. coli cells (liquid media), the “concentration at which growth becomes noticeably reduced” value worked out at 30 mM. Further, the “minimum inhibitory concentration (MIC)” value in the test on WT E. coli cells (liquid media, 16 hr growth curves) was roughly 200 mM.
In the case of `CCCC[N+](CCCC)(CCCC)CCCC.[F-]` [TBAF, Tetra-n-butylammonium fluoride], the “conformational changes of 78 Psy crcB motif RNA” value in test [1] is “trigger identical conformational changes”.
As for `Br` [bromide], in test [1], the “binding / structure modulation by other ligands” value (“binding / structure modulation” below) was “rejects”.
As for `[C-]#[O+]` [carbon monoxide], the “binding / structure modulation” value in test [1] (setting [10]) is recorded as “rejected”.
As for `Cl` [chloride], in test [1], the “78 Psy aptamer structure on exposure to chloride” value was “remains unchanged” and the “binding / structure modulation” value is reported as “rejects”.
Consider `F` [fluoride], for which the “selectivity of aptamer binding, fluoride versus chloride” value in test [1] is “at least 40,000 fold”. The Kd in [1] (read-out: apparent dissociation constant (KD)) is ~60 µM and 60 µM; at crcB motif RNA [2], roughly 50 µM; on crcB motif RNA [3], roughly 50 µM. Further, the growth result is recorded as “fails to grow” in test [4] (50 mM fluoride) and “robust growth” in the test on WT E. coli cells (50 mM fluoride). For the same compound, the MIC in test [4] (Escherichia coli, 16 h, read-out: minimum inhibitory concentration (MIC)) was greater than 1 mM. The “fluoride concentration in growth medium yielding maximal reporter gene signal” value in test [5] (crcB K.O. strain) is on record as 1 mM. Moreover, the β-galactosidase expression result in [5] (solid medium supplemented with 50 mM fluoride) was “readily apparent”. Further, the β-galactosidase reporter activity entry in test [6] is “induced high levels of expression”. Moreover, the growth inhibition result in test [7] (1 mM fluoride) is given as “almost no growth inhibition”. Moreover, the “fluoride concentration in culture medium required to cause growth inhibition and reporter expression” value in test [7] (eriC^F-rescued cells) was roughly 10 mM.
Turning to `O` [hydroxide ions, hydroxide], in test [1] (pH 9.7), the “RNA conformational changes with hydroxide” value is given as “do not trigger RNA conformational changes”.
Consider `CN(C)CCCN1c2ccccc2CCc2ccccc21` [imipramine, 3-(10,11-dihydro-5H-dibenzo[b,f]azepin-5-yl)-N,N-dimethylpropan-1-amine], for which the “reporter gene expression (fluorescence, 4-MUG)” value in test [8] (330 μM imipramine, with sodium fluoride) was “increased expression of the reporter gene”. For the same compound, the “action on fluoride transporter CrcB” value in [8] (concluded from reporter results with and without CrcB) is given as “blocks this fluoride transporter”. Besides, in test [9], the “level of reporter gene expression with imipramine” value is on record as “substantially reduced”.
As to `I` [iodide], the “binding / structure modulation” value in test [1] (setting [10]) was “rejects”.
Regarding `[N]=O` [nitric oxide], in test [1] (setting [10]), the “binding / structure modulation” value is “rejected”.
For the compound `F.[F-].[K+]` [potassium bifluoride], in test [1], the “conformational changes of 78 Psy crcB motif RNA” value is given as “trigger identical conformational changes”.

The values are drawn from US9580713B2 (priority 2011, dated 2017).
